Paper PMC10060639, “Prediction and bioactivity of small-molecule antimicrobial peptides from Protaetia brevitarsis Lewis larvae” (Frontiers in Microbiology, 2023)
Like-named read-outs stand apart in the source and are kept apart here. Ends that are not written are not given here.

Columns and labels:
[1] = system: C. albicans CMCC(F) 98001; test: agar punch method, inhibition circle; format: cell-based, Candida albicans; conditions: 6 mm hole, 55 μL of 1 mg/mL, SDA, 28°C, 16–18 h, mean ± SD, three replicates, + control given per plate group
Description: (§1) Staphylococcus aureus CMCC(B) 26003, B. thuringiensis, E. coli, and P. aeruginosa CMCC(B)10104 were cultured in NA medium and C. albicans CMCC(F) 98001 was cultured in SDA medium. They were incubated in a constant-temperature (bacteria: 37°C; fungi: 28°C) incubator for 16–20 h. Thereafter, single colonies were picked and incubated in 50 mL MHB at 160 rpm/min at the optimal growth temperature (bacteria: 37°C; fungi: 28°C). Microbial suspensions of 1 × 10^6 CFU/mL were then prepared ([Chen et al., 2016]).
(§2) 100 μL of 1 × 10^6 CFU/mL microbial suspension (E. coli, P. aeruginosa CMCC(B)10104, B. thuringiensis, S. aureus CMCC(B) 26003, or C. albicans CMCC(F) 98001) was evenly applied to dishes containing 20 mL NA (bacteria) or SDA (fungi). After the microbial solution solidified, six holes per dish were punched with a sterile pipette tip of 6 mm in diameter, with each hole spaced >20 mm apart and > 10 mm apart from the edge of the dish. […] Next, 55 μL of 1 mg/mL control/treatment was added to each hole and incubated in a constant-temperature (bacteria: 37°C; fungi: 28°C) incubator for 16–18 h ([Chen et al., 2016]; [Gong et al., 2022]), with three replicates for each treatment group. The diameter of the inhibition circle was measured using ImageJ software (National Institutes of Health, United States) in order to preliminarily determine whether the candidate peptides had inhibitory activity.

[2] = system: P. aeruginosa CMCC(B)10104; test: agar punch method, inhibition circle; format: cell-based, Pseudomonas aeruginosa; conditions: 6 mm hole, 55 μL of 1 mg/mL, NA, 37°C, 16–18 h, mean ± SD, three replicates, + control given per plate group
Description: as §1, §2

E. coli [3] = test: agar punch method, inhibition circle; format: cell-based, Escherichia coli; conditions: 6 mm hole, 55 μL of 1 mg/mL, NA, 37°C, 16–18 h, mean ± SD, three replicates, + control given per plate group
Description: as §1, §2

S. aureus CMCC(B) 26003 [4] = test: agar punch method, inhibition circle; format: cell-based, Staphylococcus aureus; conditions: 6 mm hole, 55 μL of 1 mg/mL, NA, 37°C, 16–18 h, mean ± SD, three replicates, + control given per plate group
Description: as §1, §2

B. thuringiensis [5] = test: agar punch method, inhibition circle; format: cell-based, Bacillus thuringiensis; conditions: 6 mm hole, 55 μL of 1 mg/mL, NA, 37°C (Fig. S3C: 30°C), 16–18 h, mean ± SD, three replicates, + control given per plate group
Description: as §1, §2

B. thuringiensis [6] = format: cell-based, Bacillus thuringiensis
Description: as §1
(§3) The MIC values of five candidate peptides (FD4, FD10, FD12, FD14, and FD15), which were selected based on physicochemical properties and antimicrobial effects (determined by the agar punch method), were evaluated using a micro-broth dilution method ([Zhou and Zhou, 2018]). Serial two-fold dilutions of the candidate peptides were prepared in 96-well plates containing the same microbial inoculum (E. coli, P. aeruginosa CMCC(B)10104, B. thuringiensis, S. aureus CMCC(B) 26003, or C. albicans CMCC(F) 98001). The plates were incubated (bacteria: 37°C; fungi: 28°C) for 16–18 h. Ampicillin was used as the positive control. The MIC was defined as the lowest peptide concentration where no visible growth occurred ([Diao et al., 2014]). The experiment was conducted in triplicate.

E. coli [7] = format: cell-based, Escherichia coli
Description: as §1, §3

[8] = system: P. aeruginosa CMCC(B)10104; format: cell-based, Pseudomonas aeruginosa
Description: as §1, §3

S. aureus CMCC(B) 26003 [9] = format: cell-based, Staphylococcus aureus
Description: as §1, §3

E. coli [10] = format: cell-based, Escherichia coli; remark: listed apart in the source
Description: (§4) E. coli and S. aureus CMCC(B) 26003 (1 × 10^6 CFU/mL) were incubated in MHB with various final physiological concentrations of serum salts (150 mM NaCl, 4.5 mM KCl, 1 mM MgCl2, and […]). 50 μL of these E. coli or S. aureus CMCC(B) 26003 suspensions and 50 μL of AMP (serially diluted two-fold to a final concentration of 256 μg/mL) were added to a 96-well plate and incubated at 37°C for 16–18 h ([Chou et al., 2016]). The MIC values were then determined. The experiment was conducted in triplicate.

S. aureus CMCC(B) 26003 [11] = format: cell-based, Staphylococcus aureus; remark: listed apart in the source
Description: as §4

E. coli [12] = test: time-kill assay; format: cell-based, Escherichia coli; conditions: 2× MIC, MHB with 10^6 CFU/mL, 37°C, 100 rpm, colony counting, n = 3
Description: (§5) The kill-time curve assay method was used to investigate the bactericidal effects of the […] according to the technique described by [Joray et al. (2011)]. A time–kill assay was used to examine the rate at which three AMPs (FD10, FD12, and FD15) killed two microbes (S. aureus CMCC(B) 26003 and E. coli) in vitro over time, based on the number of viable bacteria left at various time points after AMP exposure. Briefly, AMP at 2× MIC was added to MHB containing 10^6 CFU/mL S. aureus CMCC(B) 26003 or E. coli and the mixture was then incubated at 37°C and 100 rpm. At various time points, a sample was taken, serially diluted, and plated on MHA for colony counting ([Flamm et al., 2019]).

[13] = system: C. albicans CMCC(F) 98001; format: cell-based, Candida albicans
Description: as §1, §3

S. aureus CMCC(B) 26003 [14] = test: time-kill assay; format: cell-based, Staphylococcus aureus; conditions: 2× MIC, MHB with 10^6 CFU/mL, 37°C, 100 rpm, colony counting, n = 3
Description: as §5

[15] = micro-broth dilution, two-fold dilutions, 37°C, 16–18 h, no visible growth, triplicate

Substance	Inhibition circle diameter (mm) C. albicans CMCC(F) 98001 [1] [mm]	Inhibition circle diameter (mm) P. aeruginosa CMCC(B)10104 [2] [mm]	Inhibition circle diameter (mm) E. coli (E. coli [3]) [mm]	Inhibition circle diameter (mm) S. aureus CMCC(B) 26003 (S. aureus CMCC(B) 26003 [4]) [mm]	Inhibition circle diameter (mm) B. thuringiensis (B. thuringiensis [5]) [mm]	also measured
AFQRTIRKFL [FD5]	0	0	0	0	0	–
ANWDKVIR [FD13]	0	0	0	0	0	–
ANWKKVIR [FD14]	–	–	–	–	–	MIC (μg/mL) B. thuringiensis (B. thuringiensis [6]): 256 µg/mL; MIC (μg/mL) E. coli (E. coli [7]): 256 µg/mL; MIC (μg/mL) P. aeruginosa CMCC(B)10104 ([8]; CMCC(B)10104): 256 µg/mL
FPVGRVHRLL [FD11]	0	0	0	0	0	–
IRAWVAWRNR [FD3]	0	0	0	0	0	–
IVHLLTKMTK [FD4]	–	–	–	–	–	MIC (μg/mL) S. aureus CMCC(B) 26003 (S. aureus CMCC(B) 26003 [9]; CMCC(B) 26003): 256 µg/mL
KIYVLLRRQA [FD12]	–	–	–	–	–	MIC, Control (E. coli [10]): 32 µg/mL; MIC, FeCl3 (E. coli [10]): 32 µg/mL; MIC, KCl (E. coli [10]): 16 µg/mL; MIC, MgCl2 (E. coli [10]): 64 µg/mL; MIC, NaCl (E. coli [10]): 64 µg/mL; MIC (μg/mL) S. aureus CMCC(B) 26003 (S. aureus CMCC(B) 26003 [9]; CMCC(B) 26003): 16 µg/mL; MIC (μg/mL) B. thuringiensis (B. thuringiensis [6]): 128 µg/mL; MIC (μg/mL) E. coli (E. coli [7]): 32 µg/mL; MIC, Control (S. aureus CMCC(B) 26003 [11]; CMCC(B) 26003): 16 µg/mL; MIC, FeCl3 (S. aureus CMCC(B) 26003 [11]; CMCC(B) 26003): 32 µg/mL; MIC, KCl (S. aureus CMCC(B) 26003 [11]; CMCC(B) 26003): 8 µg/mL; MIC, MgCl2 (S. aureus CMCC(B) 26003 [11]; CMCC(B) 26003): 32 µg/mL; MIC, NaCl (S. aureus CMCC(B) 26003 [11]; CMCC(B) 26003): 32 µg/mL
KLLVPRCR [FD6]	0	0	0	0	0	–
LARTLKRLGM [FD2]	0	0	0	0	0	–
LVTRAAFHGKKV [FD8]	0	0	0	0	0	–
RIGRLVTRAAF [FD7]	0	0	0	0	0	–
SLARAGKVR [FD9]	0	0	0	0	0	–
STLHLVLRLR [FD16]	0	0	0	0	0	–
STLHLVLRLR-NH2 [FD15, FD16 with -NH2 added to the terminal]	0	0	11.18 ± 0.38	10.02 ± 0.22	9.15 ± 0.44	MIC, MgCl2 (E. coli [10]; E. coli, MHB with 1 mM MgCl2, 37°C, 16–18 h, triplicate): 64 µg/mL; MIC, FeCl3 (E. coli [10]; E. coli, MHB with 4 mM FeCl3, 37°C, 16–18 h, triplicate): 16 µg/mL; MIC, KCl (E. coli [10]; E. coli, MHB with 4.5 mM KCl, 37°C, 16–18 h, triplicate): 64 µg/mL; MIC, NaCl (E. coli [10]; E. coli, MHB with 150 mM NaCl, 37°C, 16–18 h, triplicate): 64 µg/mL; MIC, Control (E. coli [10]; E. coli, MHB, absence of physiological salts, 37°C, 16–18 h, triplicate): 32 µg/mL; MIC (μg/mL) S. aureus CMCC(B) 26003 (S. aureus CMCC(B) 26003 [9]; [15]): 16 µg/mL; MIC (μg/mL) B. thuringiensis (B. thuringiensis [6]; [15]): 128 µg/mL; time within which almost all E. coli cells were killed (E. coli [12]): ≤ 1 h; MIC (μg/mL) C. albicans CMCC(F) 98001 ([13]; micro-broth dilution, two-fold dilutions, 28°C, 16–18 h, no visible growth, triplicate): - (−Indicated that the MIC was greater than 256 μg/mL.); MIC (μg/mL) E. coli (E. coli [7]; [15]): 32 µg/mL; MIC (μg/mL) P. aeruginosa CMCC(B)10104 [8, 15]: - (−Indicated that the MIC was greater than 256 μg/mL.); time within which almost all S. aureus cells were killed (S. aureus CMCC(B) 26003 [14]): ≤ 1 h; MIC, MgCl2 (S. aureus CMCC(B) 26003 [11]; S. aureus CMCC(B) 26003, MHB with 1 mM MgCl2, 37°C, 16–18 h, triplicate): 64 µg/mL; MIC, FeCl3 (S. aureus CMCC(B) 26003 [11]; S. aureus CMCC(B) 26003, MHB with 4 mM FeCl3, 37°C, 16–18 h, triplicate): 32 µg/mL; MIC, KCl (S. aureus CMCC(B) 26003 [11]; S. aureus CMCC(B) 26003, MHB with 4.5 mM KCl, 37°C, 16–18 h, triplicate): 32 µg/mL; MIC, NaCl (S. aureus CMCC(B) 26003 [11]; S. aureus CMCC(B) 26003, MHB with 150 mM NaCl, 37°C, 16–18 h, triplicate): 64 µg/mL; MIC, Control (S. aureus CMCC(B) 26003 [11]; S. aureus CMCC(B) 26003, MHB, absence of physiological salts, 37°C, 16–18 h, triplicate): 16 µg/mL
VACAKRVVR [FD1]	0	0	0	0	0	–
VFRLKKWIQKVI [FD10]	–	–	–	–	–	MIC, Control (E. coli [10]): 8 µg/mL; MIC, FeCl3 (E. coli [10]): 4 µg/mL; MIC, KCl (E. coli [10]): 4 µg/mL; MIC, MgCl2 (E. coli [10]): 16 µg/mL; MIC, NaCl (E. coli [10]): 16 µg/mL; MIC (μg/mL) S. aureus CMCC(B) 26003 (S. aureus CMCC(B) 26003 [9]; CMCC(B) 26003): 16 µg/mL; MIC (μg/mL) B. thuringiensis (B. thuringiensis [6]): 8 µg/mL; MIC (μg/mL) C. albicans CMCC(F) 98001 ([13]; CMCC(F) 98001): 16 µg/mL; MIC (μg/mL) E. coli (E. coli [7]): 8 µg/mL; MIC (μg/mL) P. aeruginosa CMCC(B)10104 ([8]; CMCC(B)10104): 8 µg/mL; MIC, Control (S. aureus CMCC(B) 26003 [11]; CMCC(B) 26003): 16 µg/mL; MIC, FeCl3 (S. aureus CMCC(B) 26003 [11]; CMCC(B) 26003): 16 µg/mL; MIC, KCl (S. aureus CMCC(B) 26003 [11]; CMCC(B) 26003): 8 µg/mL; MIC, MgCl2 (S. aureus CMCC(B) 26003 [11]; CMCC(B) 26003): 32 µg/mL; MIC, NaCl (S. aureus CMCC(B) 26003 [11]; CMCC(B) 26003): 32 µg/mL
